This is an account of results in ChEMBL document CHEMBL1201862, “PubChem BioAssay data set” (2004).

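Exposure lasted 48 hours, with cells grown in 96-well plates and compounds tested at five concentrations. GI50 is the concentration that inhibits growth by half.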 Active and inactive are the calls of the source. Cut-off read from the data, not from the text of the source: active = GI50 up to about 1.1 µM and inactive = higher. Where only a bound is given, the exact number is not on record here.

Some test systems named below: A498; HCC 2998; HCT-116; HCT-15; HT-29; Hs-578T; IGROV-1; OVCAR-3; OVCAR-5; RPMI-8226; SF-539; SK-MEL-28; SK-OV-3; SN12C; SNB-75; U-251; UACC-257; UACC-62; UO-31; CCRF-CEM.
Experiment in all cases: NCI anticancer screen, dose series, 48 h

On to `c1cncc(-c2cc(-c3cc(-c4cccnc4)[nH]n3)n[nH]2)c1`, for which the GI50 is > 100 µM (inactive) with A498; > 100 µM (inactive) in the assay on HCC 2998; > 100 µM (inactive) with HCT-116; over 100 µM with HCT-15; > 100 µM (inactive) in the assay on HT-29; > 100 µM (inactive) in the assay with Hs-578T. Also, the GI50 with IGROV-1, with OVCAR-3, in the assay with OVCAR-5, in the assay on RPMI-8226, in the assay with SF-539 and with SK-MEL-28 was > 100 µM (inactive) each time. The GI50 in the assay with SK-OV-3, with SN12C, with SNB-75, in the assay on U-251, with UACC-257 and in the assay with UACC-62 was > 100 µM (inactive) in each case. Also, in the assay with UO-31, the GI50 is > 100 µM (inactive).
Turning to `CO[C@@]12C[C@H](CNC(=O)c3ccc[nH]3)O[C@@H]1NC(=O)N2`, the GI50 is > 100 µM (inactive) in the assay on A498; > 100 µM (inactive) in the assay with HCC 2998; > 100 µM (inactive) in the assay on HCT-116; over 100 µM in the assay with HCT-15; > 100 µM (inactive) in the assay on HT-29; > 100 µM (inactive) with Hs-578T. Moreover, the GI50 with IGROV-1, in the assay on OVCAR-3, in the assay with OVCAR-5, with RPMI-8226, in the assay on SF-539 and in the assay with SK-MEL-28 was > 100 µM (inactive) throughout. For the same molecule, the GI50 in the assay with SK-OV-3, in the assay with SN12C, in the assay with SNB-75, in the assay on U-251, in the assay on UACC-257 and in the assay with UACC-62 was > 100 µM (inactive) in each case. Moreover, the GI50 in the assay with UO-31 is > 100 µM (inactive).
Consider `CN1C(=O)N/C(=C\c2ccc(S(=O)(=O)N/N=C/c3ccccc3)cc2)C1=O`, for which the GI50 in the assay on A498 is > 100 µM (inactive); with CCRF-CEM, 13.3 µM (inactive); in the assay with HCC 2998, 32.1 µM (inactive); in the assay with HCT-116 it was 23.8 µM (inactive); with HCT-15, 10.4 µM; with HT-29, 30.9 µM (inactive). Besides, the GI50 was 35.5 µM (inactive) in the assay on Hs-578T; 42.1 µM (inactive) in the assay on IGROV-1; 30.9 µM (inactive) in the assay with OVCAR-3; > 100 µM (inactive) in the assay with OVCAR-5; 18.6 µM (inactive) in the assay with RPMI-8226; 38 µM (inactive) with SK-MEL-28. Further, the GI50 in the assay with SK-OV-3 was > 100 µM (inactive); in the assay on SN12C, 66.2 µM (inactive); in the assay on SNB-75, 48.3 µM (inactive); in the assay on U-251 it was 40.6 µM (inactive); in the assay on UACC-257 it was 18.4 µM (inactive); in the assay with UACC-62, 28.9 µM (inactive). The GI50 in the assay on UO-31 is 15.5 µM (inactive).
As to `Cc1ccc(-c2n[nH]c(=O)[nH]2)cc1`, the GI50 with A498 is > 100 µM (inactive); in the assay on CCRF-CEM it was > 100 µM (inactive); in the assay on HCC 2998, > 100 µM (inactive); with HCT-116 it was > 100 µM (inactive); with HCT-15 it was over 100 µM; with HT-29, > 100 µM (inactive). Besides, the GI50 with Hs-578T, in the assay on IGROV-1, in the assay with OVCAR-3, in the assay with OVCAR-5, with RPMI-8226 and with SF-539 was > 100 µM (inactive) in each case. In addition, the GI50 with SK-MEL-28 was > 100 µM (inactive); with SN12C, > 100 µM (inactive); in the assay with SNB-75, > 100 µM (inactive); in the assay with U-251, > 100 µM (inactive); in the assay with UACC-257, > 66.1 µM (inactive); in the assay with UACC-62, > 100 µM (inactive). Besides, the GI50 with UO-31 is > 100 µM (inactive).
`O=C1CN(c2ccc(Cl)cc2)C(=O)CN1CCN1CC(=O)N(c2ccc(Cl)cc2)CC1=O`: the GI50 in the assay on A498 was > 100 µM (inactive); in the assay on CCRF-CEM it was > 100 µM (inactive); in the assay on HCC 2998, > 100 µM (inactive); in the assay on HCT-116 it was > 100 µM (inactive); in the assay with HCT-15, over 100 µM; in the assay with HT-29 it was > 100 µM (inactive). Further, the GI50 with Hs-578T, in the assay with IGROV-1, in the assay on OVCAR-3, with OVCAR-5, in the assay on RPMI-8226 and in the assay with SK-MEL-28 was > 100 µM (inactive) each time. Also, the GI50 in the assay on SK-OV-3, in the assay with SN12C, in the assay with SNB-75, in the assay on U-251, in the assay on UACC-257 and with UACC-62 was > 100 µM (inactive) in each case. In the assay on UO-31, the GI50 is > 100 µM (inactive).
On to `Cc1cc2nc3[nH]nc(N)c3nc2cc1C`, for which the GI50 was > 100 µM (inactive) with A498; > 100 µM (inactive) with CCRF-CEM; > 100 µM (inactive) in the assay on HCC 2998; > 100 µM (inactive) in the assay with HCT-116; over 100 µM in the assay with HCT-15; > 100 µM (inactive) in the assay with HT-29. For the same molecule, the GI50 was 52.7 µM (inactive) in the assay with Hs-578T; > 100 µM (inactive) in the assay on IGROV-1; > 100 µM (inactive) in the assay with OVCAR-5; > 100 µM (inactive) in the assay with RPMI-8226; > 100 µM (inactive) with SK-MEL-28; > 100 µM (inactive) in the assay with SK-OV-3. Besides, the GI50 was > 100 µM (inactive) with SN12C; 26.2 µM (inactive) with SNB-75; > 100 µM (inactive) with U-251; > 100 µM (inactive) in the assay on UACC-257; > 100 µM (inactive) in the assay with UACC-62; > 100 µM (inactive) with UO-31.
On to `C/C(=N/NC(=S)N(Cc1ccccn1)Cc1ccccn1)c1cnccn1`, for which the GI50 is 9.84 µM (inactive) in the assay with A498; 0.0551 µM (active) in the assay on CCRF-CEM; 2.69 µM (inactive) in the assay on HCC 2998; 0.33 µM (active) in the assay on HCT-116; 0.458 µM in the assay on HCT-15; 0.0303 µM (active) in the assay with HT-29. Further, the GI50 in the assay on Hs-578T is 6.46 µM (inactive); in the assay on IGROV-1 it was 0.288 µM (active); in the assay on OVCAR-3 it was 0.646 µM (active); with OVCAR-5, 1.26 µM (inactive); in the assay on RPMI-8226 it was 0.373 µM (active); with SK-MEL-28 it was 0.721 µM (active). For the same molecule, the GI50 in the assay with SK-OV-3 was 0.476 µM (active); in the assay on SN12C, 0.208 µM (active); in the assay with SNB-75, 3.43 µM (inactive); with U-251, 0.129 µM (active); in the assay on UACC-257, 0.47 µM (active); in the assay with UACC-62, 0.537 µM (active).
As to `CC(C)[C@H](NC(=O)[C@@H](O)[C@H](N)Cc1ccccc1)C(=O)N[C@@H](Cc1ccccc1)C(=O)O`, the GI50 in the assay with A498 was > 100 µM (inactive); with CCRF-CEM, > 100 µM (inactive); with HCC 2998 it was > 100 µM (inactive); with HCT-116, > 100 µM (inactive); in the assay on HCT-15 it was over 100 µM; in the assay with Hs-578T, > 100 µM (inactive). The GI50 in the assay with IGROV-1, in the assay on OVCAR-3, in the assay on OVCAR-5, in the assay with RPMI-8226, in the assay with SK-MEL-28 and in the assay with SK-OV-3 was > 100 µM (inactive) each time. Moreover, the GI50 in the assay with SN12C, in the assay with SNB-75, with U-251, with UACC-257, with UACC-62 and with UO-31 was > 100 µM (inactive) each time.
With `CC1(C)OCC(/C=C\C(O)CC2(C)OCCO2)CO1` (configuration not stated), the GI50 was > 100 µM (inactive) with A498; > 100 µM (inactive) in the assay on HCC 2998; > 100 µM (inactive) with HCT-116; over 100 µM in the assay with HCT-15; > 100 µM (inactive) with HT-29; > 100 µM (inactive) in the assay with Hs-578T. Further, the GI50 in the assay with IGROV-1, with OVCAR-3, in the assay with OVCAR-5, in the assay on RPMI-8226, in the assay on SF-539 and with SK-MEL-28 was > 100 µM (inactive) each time. Further, the GI50 with SK-OV-3, in the assay on SN12C, in the assay with SNB-75, with U-251, in the assay with UACC-257 and in the assay on UACC-62 was > 100 µM (inactive) in each case. In addition, the GI50 with UO-31 is > 100 µM (inactive).
As for `ClC1(Cl)C(c2ccccc2)C1c1ccccc1` (configuration not stated), the GI50 in the assay with A498 is 38.8 µM (inactive); in the assay with HCC 2998 it was 11.1 µM (inactive); in the assay with HCT-116, 23.9 µM (inactive); with HCT-15, 21.6 µM; with Hs-578T, 20.7 µM (inactive); in the assay on OVCAR-3, 21.1 µM (inactive). In addition, the GI50 in the assay with OVCAR-5 was 43.6 µM (inactive); in the assay with RPMI-8226 it was 24.4 µM (inactive); in the assay on SK-MEL-28, 41.7 µM (inactive); in the assay on SK-OV-3, 18.8 µM (inactive); with SN12C, 39.4 µM (inactive); with SNB-75, 46 µM (inactive). Further, the GI50 with U-251 is 41.3 µM (inactive); in the assay with UACC-257, 30.7 µM (inactive); in the assay on UACC-62 it was 29.5 µM (inactive); in the assay with UO-31, 26.9 µM (inactive).
As to `c1cn[nH]c1` [PYRAZOLE], the GI50 with A498 was > 10 µM (inactive); with CCRF-CEM it was > 10 µM (inactive); in the assay on HCC 2998 it was > 10 µM (inactive); in the assay with HCT-116 it was > 10 µM (inactive); in the assay with HCT-15, over 10 µM; in the assay with HT-29, > 10 µM (inactive). Moreover, the GI50 with Hs-578T, in the assay on IGROV-1, in the assay with OVCAR-3, in the assay on RPMI-8226, with SF-539 and in the assay on SK-MEL-28 was > 10 µM (inactive) each time. The GI50 in the assay on SK-OV-3, with SN12C, in the assay with SNB-75, with U-251, with UACC-62 and in the assay with UO-31 was > 10 µM (inactive) each time.
